In brackets after ≈: the same amount, converted by molar mass. Several values for one entry are separate records, joined by “and”; a condition that tells them apart may be missing. Equal values may be shown once. Read-outs that look alike come from different tables or passages of the source.
Key:
[1] = system: methicillin-resistant S. aureus (MRSA) strain USA 300; assay type: cell-based, Staphylococcus aureus
Procedure: (§1) Pharmacodynamics of CEM-102 against Methicillin-Resistant Staphylococcus aureus Using In vitro Models. A hollow fiber model was used to evaluate CEM-102 resistance potential in methicillin-resistant S. aureus (MRSA) strain USA 300 (Network of Antimicrobial Resistance in Staphylococcus aureus (MRSA), Chantilly, Va.). USA 300 is a highly virulent strain of MRSA and is the most common community-associated MRSA isolate in the USA. MIC values were determined in accordance with Clinical and Laboratory Standards Institute (CLSI).
The hollow fiber model comprised a two-compartment hollow fiber model (Louie et al. Antimicrob Agents Chemother 52:2486-2496(2008)) consisting of a volume of 15 mL in the central compartment, with multiple ports for the removal of broth, delivery of antibiotics, and collection of bacterial and antimicrobial samples. […] All experiments were performed in duplicate.
Hollow fibers contain 15 ml of media was prepared and inoculated with 10^6 colony forming units (CFU)/mL USA 300 bacteria. One of three different dosing regimens of […] was then applied to the fibers: (1) […] q12h; (2) 1200 mg/ml×2, followed by […], q12h; (3) 1500 mg/ml×2, followed by […], q12h.

[2] = Multi-dose bioavailability study, 500 mg TID; assay type: in vivo, healthy subjects (human)
Procedure: Multi-dose bioavailability study using FA at 500 mg TID. The pharmacokinetics of multiple oral doses of CEM-102 (sodium fusidate) 500 mg tablets in healthy subjects was evaluated. […] Blood samples for assay of plasma concentrations of CEM-102 and placebo were collected pre-dose on Day 1 and at 24, 48, 72, and 96 hours. […] Plasma concentrations of CEM-102 were assayed at MicroConstants. Inc. in San Diego, Calif., USA using a validated LC/MS/MS method with a lower limit of quantitation (LLOQ) of 20.0 ng/mL.

[3] = system: Group A beta hemolytic Streptococcus; conditions: cited from earlier work
[4] = system: methicillin-resistant S. aureus (MRSA) strain USA 300; assay: CLSI MIC against MRSA strain USA 300; assay type: cell-based; conditions: Staphylococcus aureus
Procedure: as §1

[5] = system: S. pyogenes [SPYO]; assay: Reference broth microdilution susceptibility testing, Canadian isolates; assay type: cell-based; conditions: Streptococcus pyogenes; all 15 isolates
Text: (§2) To determine a contemporary susceptibility (S) spectrum pattern. 153 GP isolates (123 S. aureus, 15 coagulase-negative staphylococci [CoNS] and 15 S. pyogenes [SPYO]) were collected from 5 Canadian medical centers between 2001 and 2006.

[6] = system: S. aureus; assay: as above; assay type: cell-based
Text: as §2

With `CC(=O)O[C@H]1C[C@@]2(C)[C@@H](C[C@@H](O)[C@H]3[C@@]4(C)CC[C@@H](O)[C@@H](C)[C@@H]4CC[C@@]32C)/C1=C(\CCC=C(C)C)C(=O)O` [FA, fusidic acid] the outcome of treatment ([1]; 600 mg q12h) was “regrowth and development of resistance by 24 h and 48 h”, the “reduction of bacterial counts” value ([1]; 1200 mg×2 then 600 mg q12h) was ~2 logs and the time of rebound ([1]; 1200 mg×2 then 600 mg q12h) was 72 h. For the same compound, the killing ([1]; 1500 mg×2 then 600 mg q12h) was “over 2.5 log”, the resistance suppressed until ([1]; 1500 mg×2 then 600 mg q12h) was > 72 h and the time of rebound ([1]; 1500 mg×2 then 600 mg q12h) was 144 h. The “Cmaxss, geometric mean (CV %)” value ([2]; human, in vivo, 500 mg) was 145680 (25.3) ng/mL, the “t½ss, arithmetic mean ± SD” value ([2]; human, in vivo, 500 mg) was “approximately 19 h” and the Trough level ([2]; prior to dosing on Day 5, 500 mg TID) was 105 µg/mL. For the same compound, the MIC90 [3] was 4 to 8 µg/mL, the MICs ([3]; classified as moderately susceptible) was 4-16 micrograms per ml and the MIC [4] was 0.25 µg/mL (≈ 0.484 µM). For the same compound, the MIC [5] was 4 to 8 µg/mL (≈ 7.74 to 15.5 µM), the “% at ≤0.5” value ([6]; 2001-2002) was 95.0% and the “No. inhibited at MIC 0.06 μg/mL” value ([6]; 2001-2002) was 8. For the same compound, the “No. inhibited at MIC […]” value ([6]; 2001-2002) was 29 and 1, the “No. inhibited at MIC ≥2 μg/mL” value ([6]; 2001-2002) was 2 and the “R rate over time” value ([6]; 2001-2006, breakpoint ≤0.5 μg/ml (S) and ≤2 μg/ml (R)) was 5.0-12.2%. The “% at ≤0.5” value ([6]; 2003-2004) was 92.9%, the MIC50 ([6]; 2003-2004) was 0.12 µg/mL (≈ 0.232 µM) and the “No. inhibited at MIC 0.06 μg/mL” value ([6]; 2003-2004) was 6. The “No. inhibited at MIC […]” value ([6]; 2003-2004) was 33, the “No. inhibited at MIC ≥2 μg/mL” value ([6]; 2003-2004) was 3 and the “% at ≤0.5” value ([6]; 2005-2006) was 87.8%. For the same compound, the “No. inhibited at MIC 0.06 μg/mL” value ([6]; 2005-2006) was 2, the “No. inhibited at MIC […]” value ([6]; 2005-2006) was 32 and 2 and the “No. inhibited at MIC ≥2 μg/mL” value ([6]; 2005-2006) was 5. For the same compound, the MIC90 ([6]; Staphylococcus aureus, 2003-2004) was 0.12 µg/mL (≈ 0.232 µM), the MIC90 ([6]; Staphylococcus aureus, 2005-2006) was ≥ 2 µg/mL and the MIC90 ([6]; Staphylococcus aureus, overall S. aureus population) was 0.25 µg/mL (≈ 0.484 µM). It also gave an MIC90 ([6]; Staphylococcus aureus, 2001-2002) of 0.12 µg/mL (≈ 0.232 µM), an MIC50 ([6]; Staphylococcus aureus, 2001-2002, read-out: MIC50) of 0.12 µg/mL (≈ 0.232 µM) and a R rate ([6]; overall S. aureus population) of 8.1%.
